Results on 4 molecules are retold here after US20250042872A1, “NOVEL SALT OF 1-SULFONYL PYRROLE DERIVATIVE, METHOD FOR PREPARING SAME, AND PHARMACEUTICAL COMPOSITION INCLUDING SAME” (ILDONG PHARMACEUTICAL CO., LTD., priority 2021, published 2025).

Type in all cases: physicochemical
Data set [1] is described as follows: Evaluation of drug stability under stress conditions (high temperature open condition 60° C.), XRPD and HPLC. Conditions: 60° C. open; for stability under harsh conditions (in words): up to week 2; for HPLC peak RT 10.063 min, RRT 1.00 (main peak): in %. The procedure:
10 mg and 40 mg of the free base and the hydrochloride salt of 1-(5-(2-fluorophenyl)-4-methoxy-1-((6-methoxypyridin-3-yl)sulfonyl)-1H-pyrrole-3-yl)-N-methylmethanamine were weighed into each vial and stored under stress conditions to investigate stability.
The stress conditions are as follows:
High temperature open condition: 60° C.;
The bottle neck of the vial was wrapped with aluminum foil with pinholes to avoid contamination, and the samples were analyzed by XRPD and HPLC at the onset (day 0), week 1 and week 2.

The nature of data set [2]: Evaluation of solubility in biorelevant media (water, SGF, FaSSIF, FeSSIF), HPLC. Conditions: for Solubility-1 h Concentration / Solubility-24 h Concentration / solubility at 1 h / solubility at 24 h: 37° C.; for solubility at 1 h / solubility at 24 h: 37 °C, thermodynamic from solid; for solubility at 1 h: read-out: Solubility-1 h Concentration; for solubility at 24 h: read-out: Solubility-24 h Concentration. The procedure: Solubility in biorelevant media, such as SGF, FeSSIF, and FaSSIF was confirmed with respect to the free base and the hydrochloride salt, succinate salt and L-tartrate salt of 1-(5-(2-fluorophenyl)-4-methoxy-1-((6-methoxypyridin-3-yl)sulfonyl)-1H-pyrrole-3-yl)-N-methylmethanamine that was confirmed through the salt screening analysis result.
Buffers for the biorelevant media were prepared as follows.
Water: Laboratory Milli-Q purified water.
SGF (Stimulated Gastric Fluid): 2.0 g of sodium chloride and 7 mL of hydrochloric acid dissolved in 1000 mL of water were used.
FaSSIF (Fasted State Simulated Intestinal Fluid): A commercial product purchased from Bio-Relevant Company and manufactured according to instructions was used.
FeSSIF (Fed State Simulated Intestinal Fluid): A commercial product purchased from Bio-Relevant Company and prepared according to instructions was used.
For the experiment, about 10 mg of a compound was weighed into each glass vial and then added with 1 mL of a medium (final concentration of 10 mg/mL). Then, the sample was continuously stirred in a magnetic stirrer at 37° C. at a speed of 200 rpm. After stirring for 1 hour and 24 hours, 0.5 mL of the sample solution was transferred to a 1.5 mL centrifuge tube and centrifuged at 12,000 rpm for 5 minutes. The supernatant was diluted with suitable methanol and analyzed by HPLC.
The free acid was selected as a standard sample to quantify the solubility, and about 10 mg of the free acid was weighed into a 25 mL flask and dissolved in methanol to the […].

The nature of data set [3]: Measurement of hygroscopicity by dynamic vapor sorption (DVS). Conditions: FIGS. 22 and 23. The procedure: Using DVS intrinsic manufactured by SMS Co., Ltd, about 20 mg of the sample was tested for water sorption/desorption profiles at 25° C. under a 0%˜95%˜0% relative humidity (RH) cycle using the following parameters. • Temperature: T=25° C. • Equilibrium: dm/dt: 0.01%/min. • Range of RH (%) measurement step: 0%˜95%˜0%; RH(%) measurement step: 5%
Using the dynamic vapor sorption (DVS) test method described above, the hygroscopicity was measured for the hydrochloride salt prepared in Example 1 and the L-tartrate salt prepared in Example 8, and the results thereof were shown in FIGS. 22 and 23.

Setting [4] is: SGF, simulated gastric fluid, SGF.

Values after ≈ are worked out from the molar mass of the structure shown. Structures can show the parent of a compound that is named as a salt. Where two headings read alike, the source gives them in different places.

Take `CNCc1cn(S(=O)(=O)c2ccc(OC)nc2)c(-c2ccccc2F)c1OC` [Hydrochloride salt, hydrochloride salt of 1-(5-(2-fluorophenyl)-4-methoxy-1-((6-methoxypyridin-3-yl)sulfonyl)-1H-pyrrole-3-yl)-N-methylmethanamine]: the results for the Assay % in data set [1] (onset (day 0)) and in data set [1] (week 1) were 100.50% and 106.14%, respectively. Besides, the “stability under harsh conditions (in words)” value in data set [1] is given as “excellent stability”. In addition, the “Solubility-1 h Concentration” value in data set [2] (FaSSIF) stood at 9710 µg/mL. Further, in data set [2] (FaSSIF), the “Solubility-24 h Concentration” value amounted to 5920 µg/mL. Besides, the solubility at 1 h in data set [2] (FeSSIF, fessif, FeSSIF) is 4450 µg/mL; in data set [2] (setting [4]) it was greater than 10000 µg/mL; in data set [2] (water, water, water) it was greater than 10000 µg/mL. Besides, the solubility at 24 h in data set [2] (FeSSIF, fessif, FeSSIF) was 4370 µg/mL; in data set [2] (setting [4]) it was greater than 10000 µg/mL; in data set [2] (water, water, water), greater than 10000 µg/mL. The “solubility in FaSSIF (in words)” value in data set [2] (fasted state simulated intestinal fluid) is given as “very good”. In data set [3], the “hygroscopicity (in words)” value is “very low hygroscopicity”.
On to `CNCc1cn(S(=O)(=O)c2ccc(OC)nc2)c(-c2ccccc2F)c1OC.O=C(O)C(O)C(O)C(=O)O` [L-tartrate salt, L-tartrate salt of 1-(5-(2-fluorophenyl)-4-methoxy-1-((6-methoxypyridin-3-yl)sulfonyl)-1H-pyrrole-3-yl)-N-methylmethanamine], for which the solubility at 1 h in data set [2] (FaSSIF, fassif, FaSSIF) is 8160 µg/mL; in data set [2] (FeSSIF, fessif, FeSSIF) it was 4550 µg/mL; in data set [2] (setting [4]), greater than 10000 µg/mL; in data set [2] (water, water, water), greater than 10000 µg/mL. Further, the solubility at 24 h in data set [2] (FaSSIF, fassif, FaSSIF) is greater than 10000 µg/mL; in data set [2] (FeSSIF, fessif, FeSSIF) it was 4540 µg/mL; in data set [2] (setting [4]), greater than 10000 µg/mL; in data set [2] (water, water, water) it was greater than 10000 µg/mL. Besides, the “hygroscopicity (in words)” value in data set [3] was “very low hygroscopicity”.
In the case of `CNCc1cn(S(=O)(=O)c2ccc(OC)nc2)c(-c2ccccc2F)c1OC.O=C(O)CCC(=O)O` [Succinate salt, succinate salt of 1-(5-(2-fluorophenyl)-4-methoxy-1-((6-methoxypyridin-3-yl)sulfonyl)-1H-pyrrole-3-yl)-N-methylmethanamine], the solubility at 1 h is 8100 µg/mL in data set [2] (FaSSIF, fassif, FaSSIF); 4780 µg/mL in data set [2] (FeSSIF, fessif, FeSSIF); greater than 10000 µg/mL in data set [2] (setting [4]); greater than 10000 µg/mL in data set [2] (water, water, water). The solubility at 24 h in data set [2] (FaSSIF, fassif, FaSSIF) is greater than 10000 µg/mL; in data set [2] (FeSSIF, fessif, FeSSIF), 4720 µg/mL; in data set [2] (setting [4]), greater than 10000 µg/mL; in data set [2] (water, water, water), greater than 10000 µg/mL.
As to `CNCc1cn(S(=O)(=O)c2ccc(OC)nc2)c(-c2ccccc2F)c1OC` [Free base, 1-(5-(2-fluorophenyl)-4-methoxy-1-((6-methoxypyridin-3-yl)sulfonyl)-1H-pyrrole-3-yl)-N-methylmethanamine], in data set [1] (onset (day 0)), the Assay % amounted to 100.00%; the HPLC peak RRT 1.07 was found to be 0.66%; the “HPLC peak RT 10.063 min, RRT 1.00 (main peak)” value is recorded as 93.15. Moreover, the “stability under harsh conditions (in words)” value in data set [1] is reported as “high impurity content”. In data set [1] (week 1), this molecule showed an Assay % of 87.44%; an HPLC peak RRT 1.07 of 0.57%; an HPLC peak RT 6.797 min, RRT 0.68 of 0.43%; an HPLC peak RT 7.563 min, RRT 0.75 of 1%. Further, the HPLC peak RT 10.277 min, RRT 1.02 in data set [1] (week 1) is 9.95%. Moreover, in data set [1] (week 2), the HPLC peak RRT 0.93 amounted to 0.14% and the “HPLC peak RT 10.063 min, RRT 1.00 (main peak)” value was 65.00. Besides, in data set [2] (FaSSIF), the “Solubility-1 h Concentration” value amounted to 1440 µg/mL (≈ 3.55 mM) and the “Solubility-24 h Concentration” value came out at 1440 µg/mL (≈ 3.55 mM). Further, in data set [2] (FeSSIF), the “Solubility-1 h Concentration” value came out at 4570 µg/mL (≈ 11.3 mM) and the “Solubility-24 h Concentration” value was determined as 4770 µg/mL (≈ 11.8 mM). Besides, in data set [2] (SGF), the “Solubility-1 h Concentration” value is greater than 10000 µg/mL and the “Solubility-24 h Concentration” value is greater than 10000 µg/mL. Also, in data set [2] (water), the “Solubility-1 h Concentration” value worked out at 8560 µg/mL (≈ 21.1 mM) and the “Solubility-24 h Concentration” value amounted to 8630 µg/mL (≈ 21.3 mM).
